Twelve molecules from ChEMBL document CHEMBL3407359, “(3Z)-3-(2-[4-(aryl)-1,3-thiazol-2-yl]hydrazin-1-ylidene)-2,3-dihydro-1H-indol-2-one derivatives as dual inhibitors of HIV-1 reverse transcriptase” (Eur J Med Chem, 2015) can be followed below.

For series [1], the target named is T1, Human immunodeficiency virus type 1 reverse transcriptase (Human immunodeficiency virus 1, UniProt Q72547). As to the kind of experiment: Inhibition of HIV1 reverse transcriptase-associated DNA polymerase-independent RNase H activity after 1 hr.
Series [2] deals with T1, Human immunodeficiency virus type 1 reverse transcriptase. The series is described as follows: Inhibition of HIV1 reverse transcriptase-associated RNA-dependent DNA polymerase activity after 30 mins.
The target in series [3] is Human immunodeficiency virus type 1 reverse transcriptase (Human immunodeficiency virus 1) (UniProt Q72547). As to the kind of experiment: Specificity index, ratio of IC50 for HIV1 reverse transcriptase-associated DNA polymerase-independent RNase H activity to IC50 for HIV1 reverse transcriptase-associated RNA-dependent DNA polymerase activity.
A short description of series [4]: Metal chelating activity of the compound assessed as magnesium ion complex formation by UV-vis spectrometric analysis. Format: physicochemical.
Series [5] concerns the target T2, Human immunodeficiency virus type 1 reverse transcriptase (Human immunodeficiency virus 1, UniProt Q72547, Y181C).
Description: Inhibition of HIV1 reverse transcriptase Tyr181Cys mutant-associated DNA polymerase-independent RNase H activity after 1 hr
Series [6] addresses T2, Human immunodeficiency virus type 1 reverse transcriptase. The source holds these as a separate data set.
Description: Inhibition of HIV1 reverse transcriptase Tyr181Cys mutant-associated RNA-dependent DNA polymerase activity after 30 mins
Series [7] concerns the target T3, Human immunodeficiency virus type 1 reverse transcriptase (Human immunodeficiency virus 1, UniProt Q72547, K103N).
Description: Inhibition of HIV1 reverse transcriptase Lys103Asn mutant-associated DNA polymerase-independent RNase H activity after 1 hr
For series [8], the target named is T3, Human immunodeficiency virus type 1 reverse transcriptase. The source holds these as a separate data set.
Description: Inhibition of HIV1 reverse transcriptase Lys103Asn mutant-associated RNA-dependent DNA polymerase activity after 30 mins

Broadly, the IC50 is the concentration that inhibits the measured activity by half. Low readings indicate greater potency in that assay, high ones weaker potency in that assay. For `O=C1Nc2ccccc2/C1=N/Nc1nc(-c2ccc(F)cc2F)cs1`, the figures for the IC50 in series [1] and in series [2] were 2.6 µM and 18.5 µM, respectively. Further, the Ratio IC50 in series [3] was found to be 0.14.

Consider `O=C1Nc2ccccc2/C1=N/Nc1nc(-c2ccccc2)cs1`, for which the IC50 in series [1] stood at 100 µM; in series [2], 71.6 µM. Also, in series [3], the Ratio IC50 worked out at 1.3.

Turning to `O=C1Nc2ccccc2/C1=N/Nc1nc(-c2ccc(F)cc2)cs1`, the IC50 in series [1] stood at 6.4 µM; in series [2] it was 23.9 µM. Besides, the Ratio IC50 in series [3] came to 0.26.

As for `O=C1Nc2ccccc2/C1=N/Nc1nc(-c2ccc([N+](=O)[O-])cc2)cs1`, the IC50 in series [1] worked out at 2.9 µM; in series [2], 34 µM. Also, the Ratio IC50 in series [3] was found to be 0.08.

For the molecule `O=C1Nc2ccccc2/C1=N/Nc1nc(-c2ccc(Br)cc2)cs1`, the IC50 in series [1] amounted to 14.9 µM; in series [2], 81 µM. Moreover, the Ratio IC50 in series [3] stood at 0.18.

For `O=C1Nc2ccccc2/C1=N/Nc1nc(-c2ccc(Cl)cc2Cl)cs1`, the IC50 in series [1] came out at 3.9 µM; in series [2], 19.5 µM. The Ratio IC50 in series [3] turned out to be 0.2.

Regarding `O=C1Nc2ccccc2/C1=N/Nc1nc(-c2ccc(Cl)cc2)cs1`, the results for the IC50 in series [1] and in series [2] were 10.6 µM and 20 µM, respectively. In addition, in series [3], the Ratio IC50 was 0.53.

On to `Cc1ccc(-c2csc(N/N=C3\C(=O)Nc4ccccc43)n2)cc1`, for which the results for the IC50 in series [1] and in series [2] were 9 µM and 45 µM, respectively. Moreover, the Ratio IC50 in series [3] was 0.2.

On to `O=C1Nc2ccccc2/C1=N/Nc1nc(-c2ccc(O)c(O)c2)cs1`, for which the values for the IC50 in series [1] and in series [2] were 3.2 µM and 0.9 µM, respectively. Also, the Ratio IC50 in series [3] is 3.5. Besides, the Activity entry in series [4] is reported as “Not Active”.

Regarding `O=C1Nc2ccccc2/C1=N/Nc1nc(-c2ccc(-c3ccccc3)cc2)cs1`, the IC50 in series [1] was determined as 2.5 µM; in series [2], 22 µM; in series [5] it was 2.7 µM; in series [6], 15.4 µM; in series [7] it was 3.42 µM; in series [8], 18.8 µM. In addition, the Ratio IC50 in series [3] was determined as 0.11. The Activity result in series [4] is “Not Active”.

As for `COc1ccc(-c2csc(N/N=C3\C(=O)Nc4ccccc43)n2)cc1`, the IC50 in series [1] came to 4.7 µM; in series [2] it was 26 µM. Besides, in series [3], the Ratio IC50 came out at 0.18.

As to `O=C1Nc2ccccc2/C1=N/Nc1nc(-c2cccc([N+](=O)[O-])c2)cs1`, the IC50 in series [1] came to 2.8 µM; in series [2], 13 µM. The Ratio IC50 in series [3] was found to be 0.21.
